Data: the supplement of paper PMC5908809

Legend:
[1] = system: normal NK cells expanded with K562-aAPC; test: percent inhibition of viability; higher = more inhibition; conditions: 72 h, IL-2 2.5 ng/mL
Procedure: (§1)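 Drug sensitivity and resistance testing on K562-aAPC-expanded normal NK cells: 5 concentrations (10-fold steps over a 10,000-fold range), 72 h at 37 °C, viability by CellTiter-Glo normalised to DMSO and benzethonium chloride controls; DSS from the fitted curve.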

[2] = system: DERL-7 (IL-2 2.5 ng/mL); test: as above; conditions: 72 h
[3] = system: IMC-1 (IL-2 20 ng/mL); test: as above; conditions: 72 h
[4] = system: KAI3 (IL-2 2.5 ng/mL); test: as above; conditions: 72 h
[5] = system: KHYG-1 (IL-2 2.5 ng/mL); test: as above; conditions: 72 h
[6] = system: NK-92 (IL-2 2.5 ng/mL); test: as above; conditions: 72 h
[7] = system: NK-YS (IL-2 2.5 ng/mL); test: as above; conditions: 72 h
[8] = system: NKL (IL-2 2.5 ng/mL); test: as above; conditions: 72 h
[9] = system: SNK-6 (IL-2 2.5 ng/mL); test: as above; conditions: 72 h
[10] = system: YT (IL-2 2.5 ng/mL); test: as above; conditions: 72 h
[11] = system: normal primary NK cells, pool 1 (3 donors) (IL-2 2.5 ng/mL); test: as above; conditions: 72 h
[12] = system: normal primary NK cells, pool 1 (3 donors), resting (IL-2 0 ng/mL); test: as above; conditions: 72 h
[13] = system: normal primary NK cells, pool 2 (3 donors) (IL-2 2.5 ng/mL); test: as above; conditions: 72 h
[14] = system: normal primary NK cells, pool 3 (3 donors) (IL-2 2.5 ng/mL); test: as above; conditions: 72 h
[15] = system: normal NK cells expanded with K562-aAPC; test: drug sensitivity score (DSS) (DSS units); higher = more sensitive; extreme values may be limits of the assay; conditions: 72 h; IL-2 2.5 ng/mL
Procedure: as §1

[16] = system: DERL-7 (IL-2 2.5 ng/mL); test: as above; conditions: 72 h
[17] = system: IMC-1 (IL-2 20 ng/mL); test: as above; conditions: 72 h
[18] = system: KAI3 (IL-2 2.5 ng/mL); test: as above; conditions: 72 h
[19] = system: KHYG-1 (IL-2 2.5 ng/mL); test: as above; conditions: 72 h
[20] = system: NK-92 (IL-2 2.5 ng/mL); test: as above; conditions: 72 h
[21] = system: NK-YS (IL-2 2.5 ng/mL); test: as above; conditions: 72 h
[22] = system: NKL (IL-2 2.5 ng/mL); test: as above; conditions: 72 h
[23] = system: SNK-6 (IL-2 2.5 ng/mL); test: as above; conditions: 72 h
[24] = system: YT (IL-2 2.5 ng/mL); test: as above; conditions: 72 h
[25] = system: normal primary NK cells, pool 1 (3 donors) (IL-2 2.5 ng/mL); test: as above; conditions: 72 h
[26] = system: normal primary NK cells, pool 1 (3 donors), resting (IL-2 0 ng/mL); test: as above; conditions: 72 h
[27] = system: normal primary NK cells, pool 2 (3 donors) (IL-2 2.5 ng/mL); test: as above; conditions: 72 h
[28] = system: normal primary NK cells, pool 3 (3 donors) (IL-2 2.5 ng/mL); test: as above; conditions: 72 h

CC[C@]1(O)C[C@@H]2CN(CCc3c([nH]c4ccccc34)[C@@](C(=O)OC)(c3cc4c(cc3OC)N(C)[C@H]3[C@@](O)(C(=O)OC)[C@H](OC(C)=O)[C@]5(CC)C=CCN6CC[C@]43[C@@H]65)C2)C1 [Vinblastine] (max concentration tested 1000 nM)
percent inhibition of viability [%]
Conditions	0.1 nM	1 nM	10 nM	100 nM	1000 nM
[1]	-6.33	-1.7	26.7	60.2	63
[2]	-13.4	-1.94	99.7	101	99.8
[3]	-4.96	-7.43	99.5	101	100
[4]	-16.5	-7.66	45.5	71.1	82.4
[5]	-4.6	-0.24	96.7	108	110
[6]	-11.5	-1.18	64.9	100	107
[7]	-5.37	-3.92	70.7	69.4	90.8
[8]	-3.5	4.6	90.8	97.5	102
[9]	-13.4	-12.2	83.3	91.1	97.8
[10]	-6.33	-5.56	88.8	105	107
[11]	-10.7	7.03	4.09	14.3	22.7
[12]	-21.5	2.75	-2.96	17.9	28.1
[13]	-6.34	7.02	16.6	16.1	23.6
[14]	-4.89	5.36	12.3	3.78	13.7

Conditions	drug sensitivity score
[15]	14.7
[16]	30.2
[17]	29.8
[18]	20.6
[19]	30
[20]	25.6
[21]	24.6
[22]	29.5
[23]	27.2
[24]	28.4
[25]	1.97
[26]	3.19
[27]	4.33
[28]	0.31

CCCOc1ccn2c(C(C)=O)cc(-c3ccccc3S(C)(=O)=O)c2c1 [GSK2801] (max concentration tested 10000 nM)
percent inhibition of viability [%]
Conditions	1 nM	10 nM	100 nM	1000 nM	10000 nM
[1]	0.95	-8.4	-3.92	-5.08	3.93
[2]	3.66	0.68	6.46	3.78	26.7
[3]	-5.58	-4	-5.67	-6.64	-7.6
[4]	-0.66	1.6	3.26	1.19	13.8
[5]	-6.23	-1.14	-4.5	-0.03	3.02
[6]	13.2	-11.5	-4.85	-3.31	1.17
[7]	-2.46	-2.16	-2.35	-0.19	12.5
[8]	-3.96	-3.81	7.18	-1.4	23.3
[9]	9.8	1.5	0.45	0.35	15.4
[10]	-2.89	-0.79	-3.2	1.49	5.33
[11]	-8.08	-8.31	-8.28	1.69	18.7
[12]	-9.69	-17.6	-10.8	10.7	38
[13]	-4.35	-4.55	-1.61	-2.13	14.3
[14]	-5.87	2.4	-5.15	-6.31	4.35

Conditions	drug sensitivity score
[15]	0
[16]	1.67
[17]	0
[18]	0.24
[19]	0
[20]	0
[21]	0.07
[22]	0.73
[23]	0.29
[24]	0
[25]	0.69
[26]	3.45
[27]	0.12
[28]	0
